Tested on: HCV-JFH1
Assay: Test of neutralization by interferon alfa of infection of human intrahepatic fibroblasts with HCV-JFH1
Format: cell-based, hepatitis C virus
Conditions: human intrahepatic fibroblasts preincubated 1 h at 37° C. with 500 U/ml of interferon alfa, infected at 0.1 FFU per cell; FIG. 8
Method: The intrahepatic fibroblasts were infected one day after being put in culture with HCV-JFH1 to a multiplicity of infection of 0.1 FFU per cell. After incubation overnight at 37° C., the cellular monolayers were washed three times with phosphate-buffered saline and then grown in standard conditions (Aoudjehane et al., Lab. Invest., 88: 973-985, 2008) in DMEM medium (Gibco) 10% FCS in the presence of penicillin and streptomycin (1%) as well as pyruvate (1%).
In order to determine whether the HCV genome is capable of replicating in intrahepatic fibroblasts inoculated with HCV-JFH1, the strands of positive RNA (genomic RNA) and the strands of negative RNA (antisense RNA) were quantified. For this purpose, the cells were taken on D3, D6 and D9 post-infection, washed in PBS buffer, then prepared using the “RNeasy minikit” extraction kit (QIAGEN S.A, Courtaboeuf, France) according to the supplier's recommendations, the cells having been lysed in 300 μl of buffer for 3.10^5 cells. The intracellular RNAs were quantified by quantitative RT-PCR specific to each strand as described by Carriere et al. (J. Med. Virol., 79: 155-160, 2007). […]

interferon alfa
amount of negative-strand HCV RNA: decrease | amount of positive-strand HCV RNA: decrease

Reference: patent US20130101986A1, “In Vitro Method for obtaining Intrahepatic Fibroblasts Infected with Hepatitis C Virus” (priority 2009, published 2013)
